In patent publication US20250074913A1, “PYRAZOLE DERIVATIVES AS STING AGONISTS” (Hoffmann-La Roche Inc., priority 2022, published 2025):

System: interferon regulatory factor (IRF) pathway in THP1-Dual™ cells
Assay: THP1-Dual reporter gene assay (Agonist_THP1_EC50)
Type: cell-based
Details: Homo sapiens, 20-24 hrs compound treatment, Lucia luciferase (IRF) readout
Excerpt: This is the cellular reporter assay to evaluate compounds' agonism to interferon regulatory factor (IRF) pathway in THP1-Dual™ cells (InvivoGen, cat number thpd-nfis). THP1-Dual™ cells were derived from the human THP-1 monocyte cell line by stable integration lucia luciferase gene, a new secreted luciferase reporter gene, under the control of an ISG54 (interferon-stimulated gene) minimal promoter in conjunction with five interferon (IFN)-stimulated response elements. As a result, THP1-Dual™ cells allow the study of the IRF pathway, by assessing the activity of Lucia luciferase. Lucia luciferase protein is readily measurable in the cell culture supernatant when using QUANTI-Luc™ (InvivoGen, cat: rep-qlcg-500).
After 20-24 hrs compound treatment in THP1-Dual cells, the compounds' agonism to IRF pathway and cell toxicity were tested by measuring luminescence and OD 450 on an Envision plate reader.
On the day of experiment, 30 μL of test medium (RPMI 1640, 2 mM L-glutamine, 25 mM HEPES, […] heat-inactivated fetal bovine serum) was dispensed in a white 384-well plate (Grenier, cat: 781098) containing the serially diluted compounds (final 1% DMSO) transferred by the Echo550 machine. Then 30 μL of cell suspension (˜33,000 cells, 1.1×10^6 cells/mL) per well was added immediately by thermo multidrop combi dispenser for incubation 20-24 h at 37° C., […]. At the end of the incubation, 10 μL of cellular supernatant was transferred to proxiplate 384-plus plate for IRF detection, and then 10 μL of QUANTI-Luc™ Gold solution was added to the plate that proceeded with the measurement immediately. To detect cell viability, 30 μL of the CCK-8 working solution (Dojindo Molecular Technologies, cat: CK04-20) was added to the cell plate, which was Incubated for 2 hrs in the incubator to measure the absorbance at 450 nm using Envision.

## CCn1nc(C)c(O)c1-c1noc(-c2cc(C(N)=O)c3cc(C)ncn23)n1 [Example 27, 7-[3-(2-ethyl-4-hydroxy-5-methyl-pyrazol-3-yl)-1,2,4-oxadiazol-5-yl]-3-methyl-pyrrolo[1,2-c]pyrimidine-5-carboxamide]
  EC50: 292 nM

## COCCCn1nc(C)c(O)c1-c1n[nH]c(-n2nc(C(N)=O)c3cc(C)ncc32)n1 [Example 44, 1-[3-[4-hydroxy-2-(3-methoxypropyl)-5-methyl-pyrazol-3-yl]-1H-1,2,4-triazol-5-yl]-5-methyl-pyrazolo[3,4-c]pyridine-3-carboxamide]
  EC50: 46 nM

## Cc1cc2c(C(N)=O)nn(-c3coc(-c4c(O)c(C)nn4CCc4cccnc4)n3)c2cn1 [Example 74, 1-(2-(4-hydroxy-3-methyl-1-(2-(pyridin-3-yl)ethyl)-1H-pyrazol-5-yl)oxazol-4-yl)-5-methyl-1H-pyrazolo[3,4-c]pyridine-3-carboxamide]
  EC50: 170 nM

## CCn1nc(C)c(O)c1-c1nc(-c2nc(C(N)=O)n3cc(C)ncc23)co1 [Example 9, 1-[2-(2-ethyl-4-hydroxy-5-methyl-pyrazol-3-yl)oxazol-4-yl]-6-methyl-imidazo[1,5-a]pyrazine-3-carboxamide]
  EC50: 829 nM

## Cc1cc2c(C(N)=O)nn(-c3nc(-c4c(O)c(C)nn4CCCF)n[nH]3)c2cn1 [Example 41, 1-[3-[2-(3-fluoropropyl)-4-hydroxy-5-methyl-pyrazol-3-yl]-1H-1,2,4-triazol-5-yl]-5-methyl-pyrazolo[3,4-c]pyridine-3-carboxamide]
  EC50: 48 nM

## Cc1nn(CCCC#N)c(-c2n[nH]c(-c3nc(C(N)=O)cc4c3cnn4C)n2)c1O [Example 24, 4-[3-[2-(3-cyanopropyl)-4-hydroxy-5-methyl-pyrazol-3-yl]-1H-1,2,4-triazol-5-yl]-1-methyl-pyrazolo[4,3-c]pyridine-6-carboxamide]
  EC50: 127 nM

## CCn1nc(C)c(O)c1-c1n[nH]c(-c2cc(C(N)=O)n3cc(C)ncc23)n1 [Example 3, 8-[3-(2-ethyl-4-hydroxy-5-methyl-pyrazol-3-yl)-1H-1,2,4-triazol-5-yl]-3-methyl-pyrrolo[1,2-a]pyrazine-6-carboxamide]
  EC50: 606 nM

## Cc1nn(CCn2ccnn2)c(-c2n[nH]c(-c3nc(C(N)=O)cc4c3cnn4C)n2)c1O [Example 36, 4-[3-[4-hydroxy-5-methyl-2-[2-(triazol-1-yl)ethyl]pyrazol-3-yl]-1H-1,2,4-triazol-5-yl]-1-methyl-pyrazolo[4,3-c]pyridine-6-carboxamide]
  EC50: 240 nM

## Cc1cc2c(C(N)=O)nn(-c3nc(-c4c(O)c(C)nn4C4CC4)n[nH]3)c2cn1 [Example 33, 1-[3-(2-cyclopropyl-4-hydroxy-5-methyl-pyrazol-3-yl)-1H-1,2,4-triazol-5-yl]-5-methyl-pyrazolo[3,4-c]pyridine-3-carboxamide]
  EC50: 135 nM

## CCn1nc(C)c(O)c1-c1n[nH]c(-c2nc(C(N)=O)n3cc(C(F)F)ncc23)n1 [Example 26, 6-(difluoromethyl)-1-[3-(2-ethyl-4-hydroxy-5-methyl-pyrazol-3-yl)-1H-1,2,4-triazol-5-yl]imidazo[1,5-a]pyrazine-3-carboxamide]
  EC50: 340 nM

## CCn1nc(C)c(O)c1-c1n[nH]c(-n2nc(C(N)=O)c3cc(C)ncc32)n1 [Example 22, 1-[3-(2-ethyl-4-hydroxy-5-methyl-pyrazol-3-yl)-1H-1,2,4-triazol-5-yl]-5-methyl-pyrazolo[3,4-c]pyridine-3-carboxamide]
  EC50: 82 nM

## COc1ccc(CCn2nc(C)c(O)c2-c2n[nH]c(-c3c(F)c(C(N)=O)n4cc(C)ncc34)n2)cc1 [Example 69, 7-fluoro-8-[3-[4-hydroxy-2-[2-(4-methoxyphenyl)ethyl]-5-methyl-pyrazol-3-yl]-1H-1,2,4-triazol-5-yl]-3-methyl-pyrrolo[1,2-a]pyrazine-6-carboxamide]
  EC50: 93 nM
